Reference: publication PMC10406726, “Development, scrutiny, and modulation of transient reporter gene assays of the xenobiotic metabolism pathway in zebrafish hepatocytes” (Cell Biology and Toxicology, 2021)

How the values were obtained:
HDAC (hydrolase) = target: HDAC (hydrolase); set-up: method as in ToxCast database, CompTox dashboard; settings: TOX21_HDAC_Inhibition; ref ToxCast database, CompTox dashboard; cited from earlier work
ARE (channel 2) = system: ARE (channel 2); set-up: method as in ToxCast database, CompTox dashboard; settings: TOX21_ARE_BLA_Agonist_ch2; ref ToxCast database, CompTox dashboard; cited from earlier work
[1] = Optical inspection under the microscope for crystalized aggregates in exposure medium; type: physicochemical; settings: BNF in exposure medium, ZFL cell culture
Text: TOX21_ARE_BLA_agonist_ratio NFE2L2 nuclear factor, 0.985 DNA binding
ATG_ERE_CIS_up ESR1 estrogen receptor 1 1.06 nuclear receptor
TOX21_ARE_BLA_Agonist_ch2 – – 1.22 channel 2
ATG_PXRE_CIS_up NR1I2 nuclear receptor 2.24 nuclear receptor
ATG_ERa_TRANS_up ESR1 estrogen receptor 1 2.86 nuclear receptor
TOX21_AR_LUC_MDAKB2_Ago AR androgen receptor 3.69 nuclear receptor
ATG_VDRE_CIS_up VDR vitamin D (1,25- 4.28 nuclear receptor
TOX21_AhR_LUC_Agonist AHR aryl hydrocarbon 4.44 DNA binding
TOX21_ERa_LUC_VM7_Agonist ESR1 estrogen receptor 1 5.15 nuclear receptor
TOX21_AR_LUC_MDAKB2_Ago AR androgen receptor 5.43 nuclear receptor
TOX21_CAR_Agonist NR1I3 nuclear receptor 6.07 nuclear receptor
ATG_PXR_TRANS_up NR1I2 nuclear receptor 6.58 nuclear receptor
(§1) 132 To undermine the “maisonette” squelching hypothesis, Comptox data regarding the induction of cellular
(§2) 133 stress response pathways were backed up by empirical data in ZFL cell lines. Therefore, ZFL cells were
(§3) 134 transiently co-transfected with the Nrf2-responsive reporter vector pGL4.37 and the normalization
(§4) 135 vector pRL-CMV, as described in (Lungu-Mitea and Lundqvist 2020). Experimental design, data
(§5) 136 handling, and statistical evaluation were identical to procedures described in the main manuscript. The
137 transcription factor Nrf2 is a central regulator of the oxidative stress response pathways […]

[2] = system: Nrf2 transcription factor activation (Nrf2/Keap1/ARE); test: Nrf2-responsive transient DLR reporter gene assay (pGL4.37 + pRL-CMV) in ZFL cells; type: cell-based, zebrafish (Danio rerio); settings: for EC50: 4PL regression, normalized induction
Text: A transient reporter gene assay for the assessment of oxidative stress in the ZFL cell line had been described previously (Lungu-Mitea and Lundqvist [2020]), and was applied here in an identical manner. Please consult the respective chapter within the SI for more details.
ZFL cells were also transiently co-transfected with the Nrf2-responsive reporter vector pGL4.37 and the normalization vector pRL-CMV, as described in (Lungu-Mitea and Lundqvist [2020]). The transcription factor Nrf2 is a central regulator of the oxidative stress response pathways (Nrf2/Keap1/ARE) (Itoh et al. [2004]) and a keystone in the regulation of oxidative stress detoxification, metabolism, and induction of related phase-II enzymes (e.g., GST, NQO1, HO-1). Detailed descriptions, results, and discussion are given in the respective section of the SI (p. 12–14; Figs. S10 + 11, Table S4). […]
as §1, §2, §3, §4, §5
137 transcription factor Nrf2 is a central regulator of the oxidative stress response pathways
138 (Nrf2/Keap1/ARE) (Itoh et al. 2004) and a keystone in the regulation of oxidative stress detoxification,
139 metabolism, and induction of related phase-II enzymes (e.g. GST, NQO1, HO-1).
141 S10). […] Statistically
143 of the Nrf2-related luciferase signal.
144 optical inspection under the microscope ( not illustrated), leading to artefact effects in the luciferase
145 measurement. Therefore, specific points were excluded from the analysis and deemphasized in fig. S10.
146 Possibly, compound aggregation led to a flattening of the cytotoxicity curve in fig. S10. Compound
147 aggregation at higher molar concentratio ns has been discussed in (Owen et al. 2012, 2014) .
148 Concentrations up to cytotoxicity were used to derive a sigmoidal concentration -response relationship
149 (fig. S11). The computed parameters are depicted in tab. S4.

[3] = system: NFE2L2 (nuclear factor, erythroid 2-like 2); set-up: method as in ToxCast database, CompTox dashboard; settings: ATG_NRF2_ARE_CIS_up; ref ToxCast database, CompTox dashboard; cited from earlier work
AR (androgen receptor) = target: AR (androgen receptor); set-up: method as in ToxCast database, CompTox dashboard; settings: TOX21_AR_LUC_MDAKB2_Agonist_3uM_Nilutamide; ref ToxCast database, CompTox dashboard; cited from earlier work
[4] = target: ATAD5 (ATPase family, AAA domain containing 5); set-up: method as in ToxCast database, CompTox dashboard; settings: TOX21_ELG1_LUC_Agonist; ref ToxCast database, CompTox dashboard; cited from earlier work
[5] = target: VDR (vitamin D (1,25-dihydroxyvitamin D3) receptor); set-up: method as in ToxCast database, CompTox dashboard; settings: ATG_VDRE_CIS_up; ref ToxCast database, CompTox dashboard; cited from earlier work
[6] = system: FOS (FBJ murine osteosarcoma viral oncogene homolog); set-up: method as in ToxCast database, CompTox dashboard; settings: ATG_AP_1_CIS_up; ref ToxCast database, CompTox dashboard; cited from earlier work

In the case of `O=c1cc(-c2ccccc2)oc2ccc3ccccc3c12` [BNF, β-naphthoflavone], the AC50 (HDAC (hydrolase)) is given as 513 nM, the AC50 (ARE (channel 2)) is given as 1220 nM and the “concentration above which crystalized aggregates were encountered” value [1] is given as “above 10 µM”. For the same compound, the “LOEC of Nrf2 induction” value ([2]; BNF exposure range of 3 pM to 1 mM, pGL4.37 + pRL-CMV) was 30 nM, the “Slope (CI) of 4PL regression” value ([2]; BNF, pGL4.37 + pRL-CMV) was 0.77 (0.43-1.62) and the “concentration of maximal Nrf2 induction” value ([2]; BNF, pGL4.37 + pRL-CMV (Fig. S10)) was 100 nM. For the same compound, the EC50 ([2]; BNF, pGL4.37 + pRL-CMV) was 9.7 nM, the EC50 ([2]; Danio rerio, BNF, pGL4.37 + pRL-CMV) was 9.68 nM and the “maximal Nrf2 induction” value ([2]; at 100 nM BNF, pGL4.37 + pRL-CMV) was 3.4 fold. For the same compound, the AC50 [3] was 157 nM, the AC50 (AR (androgen receptor)) was 3690 nM and the AC50 [4] was 47.4 nM. For the same compound, the AC50 [5] was 4280 nM and the AC50 [6] was 156 nM.
